Experimental data as given in paper PMC10165945 (Journal of medicinal chemistry, 2013).
Entries after “also recorded” stand apart in the source; their conditions may differ.

Assays:
recombinant human IDE [1] = molecular target: T1, recombinant human IDE (Homo sapiens, UniProt P14735); experiment: IDE activity assay, degradation of fluorogenic peptide substrate FRET1; format: biochemical; conditions: for activity against IDE in words: FRET1 assay; for Ki: n = 3
MMP7 = molecular target: T2, MMP7 (Homo sapiens, UniProt P09237); experiment: Zinc-metalloprotease selectivity dose-response, common substrate OmniMMP: MMP7; format: biochemical; conditions: Figure 3 dose-response curves
T2 sequence (P09237 95-267): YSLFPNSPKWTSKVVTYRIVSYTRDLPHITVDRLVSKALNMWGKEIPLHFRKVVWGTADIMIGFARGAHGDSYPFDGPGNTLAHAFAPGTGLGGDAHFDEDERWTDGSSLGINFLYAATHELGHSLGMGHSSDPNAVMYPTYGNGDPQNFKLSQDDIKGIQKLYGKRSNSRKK

[2] = system: neprilysin (NEP), endothelin-converting enzyme-1 (ECE1), ACE, and MMP-2 and -7; experiment: Zinc-metalloprotease selectivity panel versus IDE, common substrate OmniMMP; format: biochemical
recombinant human IDE [3] = molecular target: T1, recombinant human IDE; experiment: IDE activity assay, Aß degradation; format: biochemical
recombinant human IDE [4] = molecular target: T1, recombinant human IDE; experiment: IDE activity assay, insulin degradation; format: biochemical
recombinant human IDE [5] = molecular target: T1, recombinant human IDE; conditions: cited from earlier work
recombinant human IDE [6] = molecular target: T1, recombinant human IDE; conditions: cited from earlier work; remark: listed apart in the source
recombinant human IDE [7] = molecular target: T1, recombinant human IDE; conditions: cited from earlier work; remark: listed apart in the source

T1 sequence (P14735 whole entry): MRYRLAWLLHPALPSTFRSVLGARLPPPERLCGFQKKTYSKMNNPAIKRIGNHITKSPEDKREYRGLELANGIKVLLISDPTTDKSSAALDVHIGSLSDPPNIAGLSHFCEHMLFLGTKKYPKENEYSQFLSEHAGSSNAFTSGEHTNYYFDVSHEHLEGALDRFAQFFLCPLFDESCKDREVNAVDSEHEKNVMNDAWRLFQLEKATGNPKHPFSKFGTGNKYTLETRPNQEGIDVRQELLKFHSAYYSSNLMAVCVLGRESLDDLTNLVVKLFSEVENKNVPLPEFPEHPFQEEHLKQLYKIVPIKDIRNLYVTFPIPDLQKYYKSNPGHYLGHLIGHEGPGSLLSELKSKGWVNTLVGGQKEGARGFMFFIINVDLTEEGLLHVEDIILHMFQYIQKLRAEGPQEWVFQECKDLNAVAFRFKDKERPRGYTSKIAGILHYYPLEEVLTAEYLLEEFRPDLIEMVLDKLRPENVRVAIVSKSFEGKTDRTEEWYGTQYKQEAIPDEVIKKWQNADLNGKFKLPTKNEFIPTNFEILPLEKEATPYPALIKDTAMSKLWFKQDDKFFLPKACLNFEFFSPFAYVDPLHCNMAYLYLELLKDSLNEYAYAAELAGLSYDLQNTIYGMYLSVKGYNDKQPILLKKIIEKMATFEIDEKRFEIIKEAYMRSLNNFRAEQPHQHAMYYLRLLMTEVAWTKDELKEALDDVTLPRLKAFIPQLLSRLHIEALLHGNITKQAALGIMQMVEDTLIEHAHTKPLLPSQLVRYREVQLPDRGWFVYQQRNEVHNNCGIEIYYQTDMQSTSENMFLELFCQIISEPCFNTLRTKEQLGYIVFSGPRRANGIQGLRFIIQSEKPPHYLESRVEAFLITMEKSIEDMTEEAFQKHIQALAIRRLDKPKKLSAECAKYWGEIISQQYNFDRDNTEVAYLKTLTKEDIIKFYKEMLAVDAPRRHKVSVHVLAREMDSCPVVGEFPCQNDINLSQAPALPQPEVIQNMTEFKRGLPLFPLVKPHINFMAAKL

N=C(N)NCCC[C@H](NC(=O)C(CC(=O)NO)Cc1ccc2ccccc2c1)C(N)=O (stereo in doubt) [inhibitor 9b, (R)-N^1-((S)-1-amino-5-guanidino-1-oxopentan-2-yl)-N^4-hydroxy-2-(naphthalen-2-ylmethyl)succinamide]
activity against IDE in words (recombinant human IDE [1]): inactive

N=C(N)NCCC[C@H](NC(=O)[C@@H](CC(=O)NO)Cc1ccc2ccccc2c1)C(=O)N[C@@H](Cc1c[nH]c2ccccc12)C(=O)N[C@@H](CCC(=O)O)C(N)=O [inhibitor 1a]
MMP7 inhibition in words (MMP7): rather potently inhibited

(2S,3R)-N^1-((S)-1-amino-5-guanidino-1-oxopentan-2-yl)-N^4,3-dihydroxy-2-(naphthalen-2-ylmethyl)succinamide [inhibitor 12b]
activity against IDE in words (recombinant human IDE [1]): abolish activity; also recorded: substantial decreases in potency

C=CCOC(=O)[C@H](CCCNC(=N)N)NC(=O)C(CC(=O)NO)Cc1ccc2ccccc2c1 (stereo in doubt) [inhibitor 14a, (S)-Allyl5-guanidino-2-((S)-4-(hydroxyamino)-2-(naphthalen-2-ylmethyl)-4-oxobutanamido)pentanoate]
fold more potent against IDE vis-à-vis the other proteases tested ([2]; OmniMMP substrate): > 100 fold | fold more potent than the parent amide, 9a (recombinant human IDE [1]; ki, FRET1): ~ 13 fold

CC(=O)N[C@H](CCC(=O)NCCNc1cccc2c(S(=O)(=O)O)cccc12)C(=O)N[C@H](Cc1ccc(O)cc1)C(=O)N[C@H](Cc1ccc(C(=O)c2ccccc2)cc1)C(=O)N[C@@H](CC(=O)NO)Cc1ccc2ccccc2c1 [inhibitor 17, Ac-Glu(EDANS)-Tyr-Bpa-2Nap-Hx]
fold lower ki^app for Aß degradation relative to insulin degradation (recombinant human IDE [3]; derived from Table 5): ~ 300 fold | fold lower ki^app for Aß degradation relative to ki for FRET1 degradation (recombinant human IDE [3]; derived from Table 5): > 30 fold

N=C(N)NCCC[C@@H](NC(=O)[C@@H](Cc1c[nH]c2ccccc12)NC(=O)[C@H](N)CCC(=O)O)C(=O)N[C@@H](CC(=O)NO)Cc1ccc2ccccc2c1 [inhibitor 15, Glu-Trp-Arg-2Nap-Hx]
fold higher ki^app for insulin degradation relative to FRET1 (recombinant human IDE [4]; derived from Table 5): > 60 fold

(2R,3S)-N^1-((S)-1-Amino-5-guanidino-1-oxopentan-2-yl)-N^4,3-dihydroxy-2-(naphthalen-2-ylmethyl)succinamide [inhibitor 12a]
activity against IDE in words (recombinant human IDE [1]): abolish activity; also recorded: substantial decreases in potency

(S)-5-Amino-4-((S)-2-((S)-5-guanidino-2-((2S,3R)-3-hydroxy-4-(hydroxyamino)-2-(naphthalen-2-ylmethyl)-4-oxobutanamido)pentanamido)-3-(1H-indol-2-yl)propanamido)-5-oxopentanoic acid [inhibitor 8b]
Ki (recombinant human IDE [3]; read-out: ki^app, nM FAßB, Table 5, substrate Aß 200 nM, n = 3): 927 ± 120 nM | Ki (recombinant human IDE [4]; read-out: ki^app, nM Insulin, Table 5, substrate insulin 2 nM, n = 3): 1890 ± 410 nM | inhibition of the other proteases tested, in words ([2]; concentrations up to 10 μM): no or only partial inhibition | Ki (recombinant human IDE [1]; read-out: ki (nM) (FRET1), Table 1, FRET1 5 μM, 22 °C): 103 ± 6.9 nM | Ki (recombinant human IDE [1]; read-out: ki, nM (FRET1), Table 2, truncation, FRET1 5 μM): 103 ± 7 nM | Ki (recombinant human IDE [1]; read-out: ki^app, nM FRET1, Table 5, substrate FRET1 5 μM): 103 ± 7 nM

Nc1ncnc2c1ncn2[C@@H]1O[C@H](COP(=O)(O)OP(=O)(O)OP(=O)(O)O)[C@@H](O)[C@H]1O [ATP]
effect on degradation of FRET1 by IDE (recombinant human IDE [5]): profoundly activates | effect on degradation of insulin by IDE (recombinant human IDE [6]): inhibits | effect on degradation of Aß by IDE (recombinant human IDE [7]): inhibits
